We go through 6 molecules from patent publication US20110195910A1, “USE OF TOCOTRIENOL COMPOSITION FOR THE PREVENTION OF CANCER” (DAVOS LIFE SCIENCE PTE. LTD., priority 2008, published 2011).

Structures are written as SMILES.

For assay [1], the system named is human estrogen-independent BCa cells (MDA-MB-231). As to the kind of experiment: MTT cell viability, MDA-MB-231 cells. The conditions noted are these: MDA-MB-231, 24 hours. Type of assay: cell-based. On the procedure: 1.1.3 Cell viability study and time course experiment—For cell viability study, 1×10^4 cells resuspended in 100 μl medium were plated into each well of a 96-well plate. The cells were then treated with different concentrations of the vitamin-E isomers for 24 hrs. After the treatment, 20 μl of 3-(4,5-Dimethyl thiazol-2-yl)-2,5-diphenyl tetrazolium bromide (MTT) solution was added into each well and the cells were incubated at 37° C. for 2 hrs. The formazan crystals were then re-suspended in 200 μl of DMSO and the intensity at 595 nm was measured. For JNK inhibitor study, cells were pre-treated with 20 μM of SP600125 for 8 hrs prior to the addition of vitamin-E isomers. For time course study, 5×10^3 cells were treated with different concentrations of the vitamin-E isomers and were subjected to MTT cell proliferation assay at the indicated time point. If IC50 for the isomer is >100 μM, 100 μM will be used as treatment dosage.
3.1.4 Cell viability and time course experiments were carried out as described above under item 1.1.3 with the following difference. For inhibitors study, cells were pre-treated with inhibitors (U0126, PD98059 and APN) at targeted dosage for 8 hrs prior to the addition of vitamin-E isomers.

The next assay has as its system MDA-MB-231 cells. As to the kind of experiment: Flow cytometry, western blotting and RT-PCR, MDA-MB-231 cells. In kind it is cell-based, human. As to conditions: MDA-MB-231. The procedure: 1.1.3 Flow cytometry—Cell cycle distribution was examined using flow cytometry. Briefly, cells were harvested by trypsinization, fixed in 70% ethanol at 4° C. overnight, and then resuspended in PBS. After incubation at 4° C. for overnight, 2×10^6 cells were incubated with in 20 μg/ml propidium iodide (PI) and 2 mg RNaseA for 15 minutes at 37° C. Cells were then examined by BD SLRII cytometer and the results were analyzed using ModFit software (Becton Dickinson, Mountain View, Calif.). Data were expressed as the percentage of cell cycle distribution in the entire population.
1.1.5 Western blotting—Detailed protocols have been described previously and are known in the art. Briefly, cell lysates were prepared by suspending cell pellets in lysis buffer [50 mmol/l Tris-HCl (pH 8.0), 150 mmol/l NaCl, 1% NP40, 0.5% deoxycholate, 0.1% SDS, 1 mg/ml aprotinin, 1 μg/ml leupeptin and 1 mmol/l phenylmethylsulfonyl fluoride]. For nuclear protein extraction, NucBuster™ protein extraction kit was used. Protein concentration was measured using the DC Protein Assay kit (Bio-Rad, Hercules, Calif.). Equal amount of protein (30 μg) was loaded onto a 10% SDS polyacrylamide gel for electrophoresis and then transferred onto a polyvinylidene difluoride membrane (Amersham, Piscataway, N.J.). The membrane was then incubated with primary antibodies for 1 hr at room temperature against E-cadherin (BD Biosciences, Bedford, Mass.), α-catenin, β-catenin, γ-catenin, Id-1, Id-3, EGFR, phosphor-c-jun, phosphor-ATF2, cleaved PARP, vimentin, α-smooth muscle actin, twist (Santa Cruz Biotechnology, Calif.), phosphor-IkB-alpha (Ser32/36), phosphor-IKK alpha (Seri 80)/IKK beta (Ser181), phosphor-SAPK/JNK (Thr183/Tyr185) G9, SAPK/JNK, NF-kB p65 (5A5) (Cell Signaling Technology Inc, Beverly, Mass.), Snail (Abcam). After incubation with appropriate secondary antibodies, signals were visualized by ECL western blotting system (Amersham, Piscataway, N.J.). Expression of β-actin and histone H1 were assessed as an internal loading control for total cell lysate and nuclear protein lysate respectively.
3.1.5 DNA fragmentation assay—After 24 hrs incubation with gamma-T3, 3×10^6 MDA-MB-231 cells were harvested and suspended in lysis buffer [5 mM Tris-HCl (pH 8.0), 20 mM EDTA, and 0.5% (v/v) Triton X-100] for 60 min on ice. Samples were centrifuged, the supernatants were removed and incubated with 5 μl RNase A (10 μg/ml) at 37° C. for 40 min, and 1 ml of anhydrous ethanol was added. Tubes were placed at […] for 20 min and then centrifuged to pellet the DNA. DNA samples were analyzed by electrophoresis at 80 V for 3 hrs on a 2% agarose gel containing ethidium bromide (0.2 μg/ml) and visualized under UV illumination.
3.1.6 Terminal deoxynucleotidyltransferase-mediated deoxyuridine triphosphate nick end-labelling (TUNEL) assay—DNA strand breaks during apoptosis was examined using in situ cell death detection reagent (Roche Applied Science). Briefly, 1×10^6 cells were pretreated with gamma-T3 for 24 hrs. Thereafter, cells were incubated with reaction mixture for 60 min at 37° C. Stained cells were analyzed and captured by fluorescence microscope on glass slide.
3.1.7 Flow cytometry was carried out as described above under item 1.1.3. Matrigel-invasion assay was carried out as described above under item 1.1.4. Western blotting was carried out as described above under item 1.1.5.
3.1.8 Id-1 RT-PCR—Total RNA was isolated using Trizol® reagent according to the manufacturer's protocol (Invitrogen). cDNA was synthesized using the SuperScript™ First Strand Synthesis System (Invitrogen) and was then amplified by PCR with Id-1 specific primers (forward primer, Id1-S, 5′-CTCCAGCACGTCATCGACTA-3′ and reverse primer, Id1-AS,5′-AAC GCA TGC CGC CTC-3′). PCR cycling protocol was as follows: 30 cycles of 10 min at 95° C., 30 s at 95° C., 30 s at 55° C., 1 min at 72° C. and 10 min at 72° C. Glyceraldehyde 3-phosphate dehydrogenase was amplified as an internal control. […]
(Flow cytometry measures light scatter and fluorescence of single cells or particles in a stream.)

The subject of the next assay is DU145 prostaspheres. As to the kind of experiment: Treatment of pre-formed CSC-enriched DU145 prostaspheres. Type of assay: cell-based. The conditions noted are these: 40 ng/ml, 48 hrs. On the procedure:
(A) CSC enriched prostaspheres were formed by maintaining DU145 cells in non-adherent culture supplemented with serum replacement medium for 14 days. The prostaspheres were then treated with either vehicle, γ-T3 (10, 20 μg/ml) or Docetaxel (Doc, 40 ng/ml) for 48 hrs. Spheroids were counted under microscope before and after treatment. Results were presented as mean % change in spheroid number to control±s.d. Note that spheroids were highly sensitive to γ-T3 treatment but resistant to high dose of Docetaxel. (B) Images of prostaspheres after 48 hrs treatment with vehicle, 40 ng/ml of Docetaxel and 10 μg/ml of γ-T3.
5.1.7 Spheroid formation assay—Spheroid formation assay was performed with a protocol modified from previous study (Folkins C, p3560). Briefly, cells were first trypsinized, washed with 1× PBS and resuspended in DMEM F12 medium. Two hundred cells were added into each well of a 24-well-plate pre-coated with polyHEMA (Sigma, St. Louis, Mo.). Cells will be grown in DMEM/F12 mem (Invitrogen, Carlsbad, Calif.) supplemented with 4 μg/mL insulin (Sigma, St. Louis, Mo.), B27 (Invitrogen, Carlsbad, Calif.), 20 ng/mL EGF (Sigma, St. Louis, Mo.), and 20 ng/mL basic FGF (Invitrogen, Carlsbad, Calif.). Fresh medium with the above supplements was added every day. γ-T3 was added at indicated time points and the number of spheroids was counted at day 14 of the assay or at the end of the treatment. Each experiment was repeated in triplicates and each data point represented the mean and standard derivation.

The next assay relates to DU145. The conditions noted are these: cited from earlier work.
Assay [2] has as its system human androgen-dependent PCa cells (LNCaP). Description: MTT cell viability, LNCaP cells. In kind it is cell-based. The procedure: 2.1.3 Cell viability study and time course experiment—For cell viability study, 5×10^3 cells resuspended in 100 μl medium were plated into each well of a 96-well plate. The cells were then treated with different concentrations (20, 40, 60, 80, 100 μM) of the vitamin-E isomers for 24 and 48 hrs. After the treatment, 20 μl of MTT solution was added into each well and the cells were incubated at 37° C. for 2 hrs. The formazan crystals were then re-suspended in 200 μl of DMSO and the intensity at 595 nm were measured. For JNK inhibitor study, cells were pre-treated with 20 μM of SP600125 for 8 hrs prior to the addition of vitamin-E isomers. For time course study, 5×10^3 cells (LNCaP and PC3) were treated with IC50 concentrations of the vitamin-E isomers and were subjected to MTT assay at the indicated time point. […] After 24 hrs, cells were subjected to western blotting and MTT assays respectively.

For assay [3], the system named is prostate intraepithelial neoplasia (PIN). As to the kind of experiment: Prevention of prostate intraepithelial neoplasia (PIN) in prostate cancer mouse models. Type of assay: in vivo. As to conditions: fed mice, FIG. 8. On the procedure: For experiments, 5-week old prostate cancer mouse models previously published (Gabril, M. Y., Duan, W., et al., Molecular Therapy (2005), vol. 11, no. 3, p. 348; Greenberg et al., Proc Natl Acad Sci USA (1995), vol. 92, pp. 3439-3443; Duan, W., Gabril, M. Y., et al., Oncogene (2005) 24, 1510-1524; Wang S, Gao J, et al., Cancer Cell., 2003, vol. 4, no. 3, pp. 209-21; Gabril, M. Y., Onita, T., et al., Gene Ther., 2002, vol. 9, no. 23, pp. 1589-99) are used. All animal experiments were conducted according to standard protocols approved by Animal Care Committee. Genotyping was performed in PSP-TGMAP, and KIMAP mice were identified by a quick PCR genotyping protocol as previously reported (see above references referred to under item 6).
In one exemplary experiment, the animals are given 1 mg of gamma tocotrienol per day for 30 weeks via oral gavage. At the end of 10, 20 and 30 weeks, animals are sacrificed. The prostate along with the male accessory glands, i.e., the ventral and dorsolateral prostate lobes, seminal vesicles, and coagulation gland, were dissected out separately for histopathological characterization of prostate tumor development, prostate intraepithelial neoplasia (PIN) development and microinvasion. […]

In the case of `COc1cccc(-c2cc(=O)c3ccccc3o2)c1N` [PD98059], the “cancer cell viability after gamma-T3 treatment with MAPK inhibitor” value in assay [1] was “not able to restore cancer cell viability”. The same measure, in the same setting: in the case of `N#CC(=C(/N)Sc1ccccc1N)/C(C#N)=C(\N)Sc1ccccc1N` [U0126] it was “not able to restore cancer cell viability”.

In the case of `N#CCCN` [β-aminopropionitrile, reference compound], the “Id1 expression on co-treatment with gamma-T3” value with MDA-MB-231 cells is reported as “almost completely restored the expression of Id1”.

Regarding `CC(=O)O[C@@]12CO[C@@H]1C[C@H](O)[C@@]1(C)C(=O)[C@H](O)C3=C(C)[C@@H](OC(=O)[C@H](O)[C@@H](NC(=O)OC(C)(C)C)c4ccccc4)C[C@@](O)([C@@H](OC(=O)c4ccccc4)[C@H]21)C3(C)C` [Docetaxel, (2R,3S)—N-carboxy-3-phenylisoserine, N-tert-butylester, 13-ester with 5,20-epoxy-1,2,4,7,10,13-hexahydroxytax-11-en-9-one-4-acetate-2-benzoate, trihydrate, reference compound], the “effect on prostasphere number” value in the assay with DU145 prostaspheres is given as “failed to induce any observable effect on prostasphere number”. The IC90 dosage with DU145 was 1.01 ng/mL. As for `CC(C)=CCC/C(C)=C/CC/C(C)=C/CC[C@]1(C)CCc2cc(O)cc(C)c2O1` [δ-T3, 8-methyltocotrienol], in assay [2] (compared with the other isomers), the “potency in suppressing cell growth in LNCaP” value was “more potent”. For the same molecule, in assay [3], the “development of prostate intraepithelial neoplasia (PIN)” value is reported as “did not develop PIN”. With `Cc1c(O)cc2c(c1C)O[C@](C)(CCC[C@H](C)CCC[C@H](C)CCCC(C)C)CC2` [γ-T, 7,8-dimethyltocol, reference compound], the “induction of apoptosis in LNCaP cells” value in assay [2] (data not shown) is “induce apoptosis in LNCaP cells at a dose similar to γ-T3”.
